Laboratory results published in patent US20230233569A1 (Revolution Medicines, Inc., priority 2020, published 2023).
pEC50, pIC50: −log10 of the molar value. Several values for one entry are separate records, joined by “and”; a condition that tells them apart may be missing. Equal entries are not always repeated. Where two headings read alike, the source gives them in different places.

What was measured:
[1] = test system: NCI-H358 (K-Ras G12C); test: CellTiter-Glo cell viability assay, 5-day treatment; type: cell-based; settings: Homo sapiens, NCI-H358, H358, K-Ras G12C; read-out: Additional H358 Cell Viability assay data (K-Ras G12C, IC50)
Summary of the method: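 Luminescence read-out after 5 days of compound exposure, with plates first brought to room temperature for roughly 30 minutes. Values are percent of averaged DMSO wells, fitted by four-parameter logistic regression.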

[2] = test system: K-Ras G12C (NCI-H358 cells); test: Potency assay: pERK (AlphaLISA SureFire or In-Cell Western); type: cell-based; settings: Homo sapiens
Summary of the method: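 NCI-H358 cells plated overnight, then treated 4 h at 37 °C with 10-point 3-fold DMSO dilutions (10 mM top stock), in duplicate. pERK1/2 read by AlphaLISA SureFire Ultra lysate assay or by In-Cell Western with DRAQ5 DNA stain. IC50 from 4-parameter sigmoidal fit of signal vs log concentration.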

[3] = molecular target: KRAS WT (Homo sapiens, UniProt P01116+P62937); test: Disruption of BRAF RBD interaction with Ras (FRET / MOA assay, with Cyclophilin A); type: biochemical
Summary of the method: (§1)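 Biochemical TR-FRET disruption assay: nucleotide-loaded K-Ras with Cyclophilin A and a BRAF RBD construct, compound titrated over 10 points from 30 μM (final).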

[4] = molecular target: KRAS G13D (Homo sapiens, UniProt P01116+P62937, G13D); test: as above; type: biochemical
Summary of the method: as §1

[5] = molecular target: KRAS G12C (Homo sapiens, UniProt P01116+P62937, G12C); test: as above; type: biochemical
Summary of the method: as §1

[6] = molecular target: KRAS G12V (Homo sapiens, UniProt P01116+P62937, G12V); test: as above; type: biochemical
Summary of the method: as §1

[7] = molecular target: NRAS G12C (Homo sapiens, UniProt P01111+P62937, G12C); test: as above; type: biochemical
[8] = molecular target: KRAS G13C (Homo sapiens, UniProt P01116+P62937, G13C); test: as above; type: biochemical
Summary of the method: as §1

[9] = molecular target: KRAS G12D (Homo sapiens, UniProt P01116+P62937, G12D); test: as above; type: biochemical
Summary of the method: as §1

[10] = molecular target: KRAS G12S (Homo sapiens, UniProt P01116+P62937, G12S); test: as above; type: biochemical
Summary of the method: as §1

[11] = molecular target: NRAS Q61K (Homo sapiens, UniProt P01111+P62937, Q61K); test: as above; type: biochemical; settings: NRAS Q61K; read-out: NRAS Q61K FRET data IC50
Summary of the method: (§2)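 TR-FRET in 25 mM HEPES pH 7.3, 100 mM NaCl, 5 mM MgCl2, 0.1% BSA: 25 μM Cyclophilin A, 12.5 nM His6-Ras-GMPPNP, 50 nM GST-BRAF RBD with compound (10-point 3-fold series from 30 μM), 3 h at 25° C. Anti-His Eu/anti-GST APC added, 1.5 h more; IC50 from decreased FRET ratio versus DMSO.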

[12] = molecular target: NRAS Q61R (Homo sapiens, UniProt P01111+P62937, Q61R); test: as above; type: biochemical; settings: NRAS Q61R; read-out: NRAS Q61R FRET data IC50
Summary of the method: as §2

[13] = NCI-H358, H358 KRAS G12C, read-out: pERK EC50
[14] = KRAS WT, read-out: KRAS WT FRET data IC50
[15] = KRAS G13D, read-out: KRAS G13D FRET data IC50
[16] = KRAS G12C, read-out: KRAS G12C FRET data IC50
[17] = KRAS G12V, read-out: KRAS G12V FRET data IC50
[18] = NRAS G12C, read-out: NRAS G12C FRET data IC50
[19] = KRAS G13C, read-out: KRAS G13C FRET data IC50
[20] = read-out: KRAS G12D FRET data, IC50
[21] = read-out: KRAS G12S FRET data, IC50

Chain of KRAS G12C (P01116 1-169 isoform P01116-2 G12C): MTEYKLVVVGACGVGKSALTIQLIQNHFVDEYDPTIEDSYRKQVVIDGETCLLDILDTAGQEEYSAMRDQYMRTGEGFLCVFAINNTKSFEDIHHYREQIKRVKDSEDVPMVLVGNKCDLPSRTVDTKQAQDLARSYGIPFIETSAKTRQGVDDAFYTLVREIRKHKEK
Chain of KRAS G12C (P62937 whole entry): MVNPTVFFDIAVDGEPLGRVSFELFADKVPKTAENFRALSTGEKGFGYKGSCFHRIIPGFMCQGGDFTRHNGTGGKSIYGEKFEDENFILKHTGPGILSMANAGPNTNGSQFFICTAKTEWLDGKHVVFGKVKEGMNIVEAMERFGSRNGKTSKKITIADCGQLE
Chain of KRAS WT (P01116 1-169 isoform P01116-2 limits assumed): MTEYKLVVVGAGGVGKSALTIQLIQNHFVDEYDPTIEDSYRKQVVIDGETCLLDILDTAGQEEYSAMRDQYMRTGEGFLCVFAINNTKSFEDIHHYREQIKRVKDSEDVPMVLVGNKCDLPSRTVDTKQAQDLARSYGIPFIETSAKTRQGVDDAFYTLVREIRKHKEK
Chain of KRAS WT (P62937 whole entry): as the sequence (P62937 whole entry) above
Chain of NRAS Q61K (P01111 whole entry Q61K): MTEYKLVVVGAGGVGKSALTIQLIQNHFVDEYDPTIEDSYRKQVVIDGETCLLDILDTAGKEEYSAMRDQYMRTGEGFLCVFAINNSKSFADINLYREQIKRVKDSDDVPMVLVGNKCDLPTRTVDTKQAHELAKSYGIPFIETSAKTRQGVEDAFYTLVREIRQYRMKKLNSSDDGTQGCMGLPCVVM
Chain of NRAS Q61K (P62937 whole entry): as the sequence (P62937 whole entry) above
Chain of NRAS Q61R (P01111 whole entry Q61R): as the sequence (P01111 whole entry Q61K) above, with K61R counted along it
Chain of NRAS Q61R (P62937 whole entry): as the sequence (P62937 whole entry) above
Chain of KRAS G12V (P01116 1-169 isoform P01116-2 G12V limits assumed): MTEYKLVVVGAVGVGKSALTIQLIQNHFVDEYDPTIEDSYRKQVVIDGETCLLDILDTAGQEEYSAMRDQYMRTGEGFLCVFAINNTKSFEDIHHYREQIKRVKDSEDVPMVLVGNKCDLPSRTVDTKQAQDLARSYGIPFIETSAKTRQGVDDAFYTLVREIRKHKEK
Chain of KRAS G12V (P62937 whole entry): as the sequence (P62937 whole entry) above
Chain of KRAS G12D (P01116 1-169 isoform P01116-2 G12D limits assumed): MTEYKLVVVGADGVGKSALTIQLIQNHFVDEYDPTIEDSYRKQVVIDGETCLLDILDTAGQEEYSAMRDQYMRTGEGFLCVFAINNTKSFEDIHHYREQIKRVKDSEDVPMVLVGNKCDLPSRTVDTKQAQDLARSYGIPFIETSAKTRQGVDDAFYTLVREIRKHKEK
Chain of KRAS G12D (P62937 whole entry): as the sequence (P62937 whole entry) above
Chain of KRAS G13D (P01116 1-169 isoform P01116-2 G13D limits assumed): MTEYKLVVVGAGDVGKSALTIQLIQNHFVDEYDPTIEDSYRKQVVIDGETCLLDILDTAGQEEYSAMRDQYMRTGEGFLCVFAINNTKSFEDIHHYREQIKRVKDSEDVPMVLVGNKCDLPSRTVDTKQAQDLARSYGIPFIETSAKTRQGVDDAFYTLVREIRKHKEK
Chain of KRAS G13D (P62937 whole entry): as the sequence (P62937 whole entry) above
Chain of KRAS G13C (P01116 1-169 isoform P01116-2 G13C): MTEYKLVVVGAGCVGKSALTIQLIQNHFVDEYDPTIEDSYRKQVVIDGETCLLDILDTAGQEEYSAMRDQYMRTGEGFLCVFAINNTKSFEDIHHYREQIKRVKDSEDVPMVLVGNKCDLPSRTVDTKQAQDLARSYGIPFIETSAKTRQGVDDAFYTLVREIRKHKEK
Chain of KRAS G13C (P62937 whole entry): as the sequence (P62937 whole entry) above
Chain of KRAS G12S (P01116 1-169 isoform P01116-2 G12S limits assumed): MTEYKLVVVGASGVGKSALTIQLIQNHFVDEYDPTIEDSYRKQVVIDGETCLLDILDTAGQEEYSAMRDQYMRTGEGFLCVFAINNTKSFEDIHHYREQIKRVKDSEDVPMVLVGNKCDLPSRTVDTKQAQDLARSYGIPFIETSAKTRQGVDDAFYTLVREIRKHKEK
Chain of KRAS G12S (P62937 whole entry): as the sequence (P62937 whole entry) above
Chain of NRAS G12C (P01111 whole entry G12C): as the sequence (P01111 whole entry Q61K) above, with G12C, K61Q counted along it
Chain of NRAS G12C (P62937 whole entry): as the sequence (P62937 whole entry) above

| SMILES | pIC50 [1] | pEC50 [2, 13] | pIC50 [3, 14] | pIC50 [4, 15] | pIC50 [5, 16] | pIC50 [6, 17] | pIC50 [7, 18] | pIC50 [8, 19] | pIC50 [9, 20] | pIC50 [10, 21] | pIC50 [11] | pIC50 [12] | further results |
| --- | --- | --- | --- | --- | --- | --- | --- | --- | --- | --- | --- | --- | --- |
| CCn1c(-c2cccnc2[C@H](C)OC)c2c3cc(ccc31)-c1cc(sn1)C[C@H](NC(=O)[C@H](C(C)C)N(C)C(=O)[C@@H]1CCN(C(=O)C#CCN3CCOCC3)C1)C(=O)N1CCC[C@H](N1)C(=O)OCC(C)(C)C2 [Example A201] | 7.00 to 8.00 | > 5.30 | < 5.00 | < 5.00 | 7.00 to 8.00 | < 5.00 | 6.00 to 7.00 | 5.00 to 6.00 | < 5.00 | < 5.00 | – | – | – |
| CCn1c(-c2cccnc2[C@H](C)OC)c2c3cc(ccc31)-c1cc(O)cc(c1)C[C@H](NC(=O)[C@H](C(C)C)N(C)C(=O)c1nc(NC(=O)/C=C/CN(C)C)cs1)C(=O)N1CCC[C@H](N1)C(=O)OCC(C)(C)C2 [Example A258] | 6.00 to 7.00 | > 5.30 | 6.00 to 7.00 and 5.00 to 6.00 | 6.00 to 7.00 and 5.00 to 6.00 | 6.00 to 7.00 | 6.00 to 7.00 and 5.00 to 6.00 | 6.00 to 7.00 | > 8.00 and 7.00 to 8.00 | 5.00 to 6.00 and < 5.00 | 5.00 to 6.00 | – | – | – |
| CCn1c(-c2cccnc2[C@H](C)OC)c2c3cc(ccc31)-c1csc(n1)C[C@H](NC(=O)[C@H](C(C)C)N(C)C(=O)[C@H]1CCN(C(=O)/C=C/CN(C)C)C1)C(=O)N1CCC[C@H](N1)C(=O)OCC(C)(C)C2 [Example A282] | 7.00 to 8.00 | > 5.30 | 5.00 to 6.00 | 5.00 to 6.00 | 6.00 to 7.00 | 5.00 to 6.00 | 6.00 to 7.00 | 5.00 to 6.00 | 5.00 to 6.00 | 5.00 to 6.00 | – | – | – |
| C=CC(=O)N1CC[C@H](C(=O)N(C)[C@H](C(=O)N[C@H]2Cc3cccc(c3)-c3ccc4c(c3)c(c(-c3cccnc3[C@H](C)OC)n4CC)CC(C)(C)COC(=O)[C@@H]3CCCN(O3)C2=O)C(C)C)C1 [Example A284] | 6.00 to 7.00 | – | – | – | – | – | – | – | – | – | – | – | pEC50 ([2]; NCI-H358, read-out: pERK EC50): > 5.30; pIC50 ([3]; KRAS WT FRET data IC50, KRAS WT): < 5.00; pIC50 ([4]; KRAS G13D FRET data IC50, KRAS G13D): < 5.00; pIC50 ([5]; KRAS G12C FRET data IC50, KRAS G12C): 6.00 to 7.00; pIC50 ([6]; KRAS G12V FRET data IC50, KRAS G12V): < 5.00; pIC50 ([7]; NRAS G12C FRET data IC50, NRAS G12C): 5.00 to 6.00; pIC50 ([8]; KRAS G13C FRET data IC50, KRAS G13C): 5.00 to 6.00; pIC50 ([9]; KRAS G12D FRET data, IC50): < 5.00; pIC50 ([10]; KRAS G12S FRET data, IC50): < 5.00 |
| CC#C[S+]([O-])N1CC[C@H](C(=O)N(C)[C@H](C(=O)N[C@H]2Cc3cccc(c3)-c3ccc4c(c3)c(c(-c3cccnc3[C@H](C)OC)n4CC)CC(C)(C)COC(=O)[C@@H]3CCCN(N3)C2=O)C2CCCC2)C1 (stereo partly shown) [Example A310] | 7.00 to 8.00 | > 5.30 | 5.00 to 6.00 | < 5.00 | 6.00 to 7.00 | 5.00 to 6.00 | 6.00 to 7.00 | 5.00 to 6.00 | < 5.00 | 5.00 to 6.00 | – | – | – |
| C=CC(=O)N(C)CCN(C)C(=O)N(C)[C@H](C(=O)N[C@H]1Cc2nc(cs2)-c2ccc3c(c2)c(c(-c2cccnc2[C@H](C)OCC)n3CC)CC(C)(C)COC(=O)[C@@H]2CCCN(N2)C1=O)C(C)C [Example A437] | 7.00 to 8.00 | > 5.30 | 6.00 to 7.00 | 5.00 to 6.00 | 7.00 to 8.00 | 6.00 to 7.00 | 7.00 to 8.00 | 6.00 to 7.00 | 5.00 to 6.00 | 6.00 to 7.00 | – | – | – |
| CCn1c(-c2cccnc2[C@H](C)OC)c2c3cc(ccc31)-c1cccc(c1)C[C@H](NC(=O)[C@H](C(C)C)N(C)C(=O)[C@@H]1CCN(C(=O)C#CC(C)(C)N3CCC3)C1)C(=O)N1CCC[C@H](N1)C(=O)OCC(C)(C)C2 [Example A476] | > 8.00 | > 5.30 | 5.00 to 6.00 | 5.00 to 6.00 | 7.00 to 8.00 | 5.00 to 6.00 | 7.00 to 8.00 | 6.00 to 7.00 | 5.00 to 6.00 | 5.00 to 6.00 | – | – | – |
| CCn1c(-c2cccnc2[C@H](C)OC)c2c3cc(ccc31)-c1cccc(c1)C[C@H](NC(=O)[C@H](C(C)C)N(C)C(=O)[C@H]1CCN(C(=O)C#CC3CC(F)(F)CN3C)C1)C(=O)N1CCC[C@H](N1)C(=O)OCC(C)(C)C2 (stereo partly shown) [Example A526] | > 8.00 | > 5.30 | 5.00 to 6.00 | < 5.00 | 7.00 to 8.00 | 5.00 to 6.00 | 7.00 to 8.00 | 5.00 to 6.00 | < 5.00 | 5.00 to 6.00 | – | – | – |
| C=CC(=O)N1CCO[C@@H]2CCN(C(=O)N(C)[C@H](C(=O)N[C@H]3Cc4nc(cs4)-c4ccc5c(c4)c(c(-c4cccnc4[C@H](C)OC)n5CC)CC(C)(C)COC(=O)C4CCCN(N4)C3=O)C(C)C)CC21 (stereo partly shown) [Example A596] | > 8.00 | > 5.30 | – | – | – | – | 7.00 to 8.00 | – | – | – | 7.00 to 8.00 | 7.00 to 8.00 | – |
| C=CC(=O)N1CCO[C@H]2CN(C(=O)N(C)[C@H](C(=O)N[C@H]3Cc4cccc(n4)-c4ccc5c(c4)c(c(-c4cccnc4[C@H](C)OC)n5CC)CC(C)(C)COC(=O)C4CCCN(N4)C3=O)C(C)C)C[C@H]21 (stereo partly shown) [Example A597] | > 8.00 | > 5.30 | – | – | – | – | 7.00 to 8.00 | – | – | – | 6.00 to 7.00 | 6.00 to 7.00 | – |
| CCn1c(-c2cccnc2[C@H](C)OC)c2c3cc(ccc31)-c1cccc(c1)C[C@H](NC(=O)[C@@H](COC1CN(C(=O)C#CC(C)(C)N(C)C(C)C)C1)C(C)C)C(=O)N1CCCC(N1)C(=O)OCC(C)(C)C2 (stereo partly shown) [Example A599] | > 8.00 | > 5.30 | – | – | – | – | 7.00 to 8.00 | – | – | – | < 5.00 | < 5.00 | – |
| C=CC(=O)Nc1cnc(OC[C@H](C(=O)N[C@H]2Cc3cccc(c3)-c3ccc4c(c3)c(c(-c3cccnc3[C@H](C)OC)n4CC)CC(C)(C)COC(=O)C3CCCN(N3)C2=O)C(C)C)n1C (stereo partly shown) [Example A600] | > 8.00 | > 5.30 | – | – | – | – | > 8.00 | – | – | – | 5.00 to 6.00 | 5.00 to 6.00 | – |
